Measured values taken from patent publication US4206215A, “Antimicrobial bis-[4-(substituted-amino)-1-pyridinium]alkanes” (Sterling Drug Inc., priority 1977, dated 1980).

Key:
S. Aureus Smith = assay: In vitro antibacterial activity, MIC (modified Autotiter method); format: cell-based, Staphylococcus aureus; settings: Staphylococcus aureus, 20 h, 18-20 hours at 37° C.; read-out: MIC S. Aureus Smith
Summary of the method: (§1)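 Semisynthetic glucose medium at double strength, already inoculated, is added to cups holding compound diluted twofold in sterile water. The series starts from a 1,000 mcg./ml. solution and ends at final concentrations of 500 through 0.06 mcg./ml.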

E. coli 100/B22 = assay: as above; format: cell-based, Escherichia coli; settings: Escherichia coli, 100/B22, 20 h, 18-20 hours at 37° C.; read-out: MIC E. coli 100/B22
Summary of the method: as §1

E. coli AB1932-1 = assay: as above; format: cell-based, Escherichia coli; settings: Escherichia coli, AB19321, 20 h, 18-20 hours at 37° C.; read-out: MIC E. coli AB1932-1
Summary of the method: as §1

E. coli Vogel = assay: as above; format: cell-based, Escherichia coli; settings: Escherichia coli, 20 h, 18-20 hours at 37° C.; read-out: MIC E. coli Vogel
Summary of the method: as §1

K. pneum. 39645 = assay: as above; format: cell-based, Klebsiella pneumoniae; settings: Klebsiella pneumoniae, 20 h, 18-20 hours at 37° C.; read-out: MIC K. pneum. 39645
Summary of the method: as §1

P. mirab. MGH-1 = assay: as above; format: cell-based, Proteus mirabilis; settings: Proteus mirabilis, 20 h, 18-20 hours at 37° C.; read-out: MIC P. mirab. MGH-1
Summary of the method: as §1

Ps. aerug. MGH-2 = assay: as above; format: cell-based, Pseudomonas aeruginosa; settings: Pseudomonas aeruginosa, 20 h, 18-20 hours at 37° C.; read-out: MIC Ps. aerug. MGH-2
Summary of the method: as §1

S. pyogen. C203 = assay: as above; format: cell-based, Streptococcus pyogenes; settings: Streptococcus pyogenes, 20 h, 18-20 hours at 37° C.; read-out: MIC S. pyogen. C203
Summary of the method: as §1

A. niger 16404 = assay: In vitro antifungal activity, MIC (modified Autotiter method); format: cell-based, Aspergillus niger; settings: Aspergillus niger, 16404, 20 h, 18-20 hours at 37° C.; read-out: MIC A. niger 16404
Summary of the method: as §1

C. albicans 10231 = assay: as above; format: cell-based, Candida albicans; settings: Candida albicans, 10231, 20 h, 18-20 hours at 37° C.; read-out: MIC C. albicans 10231
Summary of the method: as §1

C. albicans Wisc. = assay: as above; format: cell-based, Candida albicans; settings: Candida albicans, 20 h, 18-20 hours at 37° C.; read-out: MIC C. albicans Wisc.
Summary of the method: as §1

T. menta. 9129 = assay: as above; format: cell-based, Trichophyton mentagrophytes; settings: Trichophyton mentagrophytes, 20 h, 18-20 hours at 37° C.; read-out: MIC T. menta. 9129
Summary of the method: as §1

[1] = tested on: Herpes simplex type 2 virus; assay: Virucidal activity in vitro (plaque inhibition test); format: cell-based; settings: 2 mg. of test compound on growth medium
Description: Virucidal activity of representative examples against Herpes simplex type 2 virus was determined in vitro employing a procedure similar to the plaque inhibition test for detection of specific inhibitors of DNA-containing viruses published by E. C. Herrmann, Jr., Proc. Soc. Exp. Biol. Med. 107, 142 (1961) wherein 2 mg. of the test compound was placed on the surface of the growth medium.

Row | SMILES | MIC (S. Aureus Smith) [µg/mL] | MIC (E. coli 100/B22) [µg/mL] | MIC (E. coli AB1932-1) [µg/mL] | MIC (E. coli Vogel) [µg/mL] | MIC (K. pneum. 39645) [µg/mL] | MIC (P. mirab. MGH-1) [µg/mL] | MIC (Ps. aerug. MGH-2) [µg/mL] | MIC (S. pyogen. C203) [µg/mL] | MIC (A. niger 16404) [µg/mL] | MIC (C. albicans 10231) [µg/mL] | MIC (C. albicans Wisc.) [µg/mL] | MIC (T. menta. 9129) [µg/mL] | Virucidal activity against Herpes simplex type 2 virus [1]
1 | CCCCCCNc1cc[n+](CCCC[n+]2ccc(NCCCCCC)cc2)cc1 [Example 16, 1,4-bis-[4-(hexylamino)-1-pyridinium]butane dibromide] | 7.8 | 125 | 62.5 | 125 | > 125 | > 125 | > 250 | 1.95 | 125 | 125 | 125 | 15.6 | inactive
2 | CCCCCCNc1cc[n+](CCCCCC[n+]2ccc(NCCCCCC)cc2)cc1 [Example 17, 1,6-bis-[4-(hexylamino)-1-pyridinium]-hexane dibromide] | 0.49 | 0.78 | 7.8 | 31.3 | 125 | > 250 | > 125 | > 250 | 7.8 | 15.6 | 15.6 |  | active
3 | CCCCCCNc1cc[n+](CCCCCCC[n+]2ccc(NCCCCCC)cc2)cc1 [Example 18, 1,7-bis-[4-(hexylamino)-1-pyridinium]heptane dibromide] | 0.39 | 7.8 | 7.8 | 15.6 | 15.6 | > 125 | > 125 | 0.49 | 15.6 | 6.25 | 7.8 | 15.6 | active
4 | CCCCCCCNc1cc[n+](CCCCCCC[n+]2ccc(NCCCCCCC)cc2)cc1 [Example 21, 1,7-bis-[4-(heptylamino)-1-pyridinium]heptane dibromide] | 0.24 | 1.95 | 1.95 | 1.95 | 3.9 | 125 | 125 | 0.98 | 15.6 | 3.9 | 3.9 | 3.9 | active
5 | CCCCCCNc1cc[n+](CCCCC[n+]2ccc(NCCCCCC)cc2)cc1 [Example 31, 1,5-bis-[4-(hexylamino)-1-pyridinium]pentane dibromide] | 1.95 | 62.5 | 31.3 | 125 | > 125 | > 250 | > 125 | 0.98 | 31.3 | 31.3 | 62.5 | 31.3 | active
6 | c1c[n+](CCCC[n+]2ccc(NC3CCCCC3)cc2)ccc1NC1CCCCC1 [Example 34, 1,4-bis-[4-(cyclohexylamino)-1-pyridinium]butane dibromide] | 125 | 125 | 125 | 125 | > 500 | > 500 | > 500 | 31.3 | 500 | 500 | 500 | 125 | inactive
7 | c1c[n+](CCCCC[n+]2ccc(NC3CCCCC3)cc2)ccc1NC1CCCCC1 [Example 35, 1,5-bis-[4-(cyclohexylamino)-1-pyridinium]pentane dibromide] | 125 | > 500 | > 500 | > 500 | > 500 | > 500 | > 500 | 15.6 | 500 | 500 | 500 | 125 | active
8 | c1c[n+](CCCCCC[n+]2ccc(NC3CCCCC3)cc2)ccc1NC1CCCCC1 [Example 36, 1,6-bis-[4-(cyclohexylamino)-1-pyridinium]hexane dibromide] | 15.6 | > 125 | 125 | > 125 | > 125 | > 125 | > 125 | 15.6 | 125 | 125 | 125 | 15.6 | active
9 | c1c[n+](CCCCCCC[n+]2ccc(NC3CCCCC3)cc2)ccc1NC1CCCCC1 [Example 37, 1,7-bis-[4-(cyclohexylamino)-1-pyridinium]heptane dibromide] | 7.8 | > 125 | 125 | > 125 | > 125 | > 125 | 125 | 7.8 | > 125 | 125 | 125 | 15.6 | active
10 | c1c[n+](CCCCCCCCC[n+]2ccc(NC3CCCCC3)cc2)ccc1NC1CCCCC1 [Example 39, 1,9-bis-[4-(cyclohexylamino)-1-pyridinium]nonane dibromide] | 0.98 | 31.3 | 31.3 | 31.3 | 125 | > 500 | 500 | 3.9 | 7.8 | 15.6 | 15.6 | 3.9 | inactive
11 | c1c[n+](CCCCCCCCCC[n+]2ccc(NC3CCCCC3)cc2)ccc1NC1CCCCC1 [Example 40, 1,10-bis-[4-(cyclohexylamino)-1-pyridinium]decane dibromide] | 0.24 | 15.6 | 7.8 | 15.6 | > 125 | > 125 | > 125 | 3.9 | 7.8 | 3.9 | 7.8 | 1.95 | inactive
12 | CCCCC(CC)CNc1cc[n+](CCCCC[n+]2ccc(NCC(CC)CCCC)cc2)cc1 (centres unmarked) [Example 53, 1,5-bis-[4-(2-ethylhexylamino)-1-pyridinium]pentane dibromide] | 0.49 | 15.6 | 7.8 | 15.6 | > 125 | > 125 | 125 | 0.625 | 31.3 | 31.3 | 15.6 | 7.8 | active
13 | CCCCC(CC)CNc1cc[n+](CCCCCC[n+]2ccc(NCC(CC)CCCC)cc2)cc1 (centres unmarked) [Example 54, 1,6-bis-[4-(2-ethylhexylamino)-1-pyridinium]hexane dibromide] | 0.49 | 3.9 | 1.95 | 7.8 | 125 | > 125 | > 250 | 0.625 | 15.6 | 7.8 | 7.8 | 1.95 | active
14 | CCCCC(CC)CNc1cc[n+](CCCCCCC[n+]2ccc(NCC(CC)CCCC)cc2)cc1 (centres unmarked) [Example 55, 1,7-bis-[4-(2-ethylhexylamino)-1-pyridinium]heptane dibromide] | 0.49 | 3.9 | 3.9 | 3.9 | 7.8 | > 125 | 125 | 0.49 | 15.6 | 7.8 | 7.8 | 1.95 | active
15 | CCCCC(CC)CNc1cc[n+](CCCCCCCCC[n+]2ccc(NCC(CC)CCCC)cc2)cc1 (centres unmarked) [Example 57, 1,9-bis-[4-(2-ethylhexylamino)-1-pyridinium]nonane dibromide] | 0.31 | 0.98 | 0.98 | 0.98 | 7.8 | 125 | 125 | 0.625 | 15.6 | 3.9 | 3.9 | 0.98 | active
